# Experimental data: patent publication US10980808B2, “Calmodulin inhibitors, Chk2 inhibitors and RSK inhibitors for the treatment of ribosomal disorders and ribosomapathies” (THE CHILDREN'S MEDICAL CENTER CORPORATION, priority 2016, dated 2021)
# Structures can show the parent of a compound that is named as a salt.
# Columns and labels:
# [1] = system: rps29−/− zebrafish embryos; settings: previously demonstrated; cited from earlier work
# [2] = system: rps29−/− zebrafish embryos; assay: hemoglobin (benzidine staining) rescue in rps29-/- zebrafish embryos; assay type: in vivo; settings: benzidine staining; dihydrochloride
# [3] = system: mouse thymocytes; settings: cited from earlier work
# [4] = system: Chk2 activation in HT29 cells; settings: cited from earlier work
# [5] = molecular target: p70S6K (Homo sapiens, UniProt P23443); assay: in vitro kinase profiling (Thermo Fisher SelectScreen), p70S6K; assay type: biochemical
# Source text: We asked if CaM and Chk2 inhibitors are blocking specific kinases. The known kinases that phosphorylate S392 are CK2 and p38. […] Thus, the question became what is TFP inhibiting upstream? Is it inhibiting a kinase that phosphorylates S392? We submitted CaM and Chk2 inhibitors for Kinase profiling using Thermo Fisher's SelectScreen.
# [6] = system: p70S6K and RPS6 phosphorylation in cells; assay: phosphorylation after calcium chelation in cells; assay type: cell-based; settings: chelating calcium in cells
# Source text: (§1) We hypothesize that the CaM inhibition is indirect, CaM is needed for calcium signaling. […] RSK inhibitor: SL and B1. P70s6K inhibitor: PF. In Summary we show: 1) CaM and Chk2 inhibitors reduce S392 phosphorylation of p53—to a much greater extent during ribosomal protein deficiency 2) CaM and Chk2 inhibitors also decrease P-p70S6K to a much greater extent during RP deficiency 3) p70S6K can directly phosphorylate p53 S392 in vitro 4) Total protein levels of RSK, p70S6K and rps6 are increased ruing RP deficiency in vitro and in vivo 5) RSK2 is increased in our microarray in […] vs WT 24 hpf embryos. Protein validates this upregulation 6) Calcium levels are increased during RP deficiency 7) Blocking the CaM-Calcium signaling (CaM inhibitors) or directly inhibiting RSK or p70S6K (Chk2 inhibitors) leads to a decrease in P-p53 and p53 activity. Reduced p53 activity leads to fewer RBCs undergoing apoptosis, alleviating the anemia.
# [7] = system: calcium in lysates of RPS19 knocked down cells; assay: colorimetric calcium detection in cellular lysates; assay type: cell-based
# Source text: as §1
# Sequence of p70S6K (P23443 whole entry): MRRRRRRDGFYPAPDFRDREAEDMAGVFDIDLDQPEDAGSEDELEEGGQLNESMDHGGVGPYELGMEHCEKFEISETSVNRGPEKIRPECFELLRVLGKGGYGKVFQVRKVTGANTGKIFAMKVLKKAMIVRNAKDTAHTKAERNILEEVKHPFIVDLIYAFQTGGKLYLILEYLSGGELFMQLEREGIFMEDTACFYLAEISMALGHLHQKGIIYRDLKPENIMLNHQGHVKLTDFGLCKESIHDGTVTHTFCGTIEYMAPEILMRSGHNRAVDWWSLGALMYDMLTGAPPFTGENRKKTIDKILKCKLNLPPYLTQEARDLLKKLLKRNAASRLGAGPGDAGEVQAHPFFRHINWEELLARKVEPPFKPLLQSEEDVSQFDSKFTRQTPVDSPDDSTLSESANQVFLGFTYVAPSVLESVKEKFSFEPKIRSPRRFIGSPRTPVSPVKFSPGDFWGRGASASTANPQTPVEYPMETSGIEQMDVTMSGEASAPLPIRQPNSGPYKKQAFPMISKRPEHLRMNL
structure (smiles),measurement,setting,value
NCCCCCCNS(=O)(=O)c1cccc2ccccc12 [W-5],rescue of the vasculature defect,[1],rescue the vasculature defect
"COc1cc2nc(-c3cc(F)ccc3O)nc(NC3CNC[C@H]3C(C)(C)O)c2cc1OC (some centres unmarked) [CCT, CCT 241533 dihydrochloride]",hemoglobin (Hb) in rps29−/− embryos,[2],rescue Hb
same,ionizing radiation-induced apoptosis,[3],blocks
same,Chk2 activation in response to etoposide-induced DNA damage,[4],inhibits
same,"percent inhibition of in vitro kinase activity, p70S6K",[5],inhibition
CC(=O)OCOC(=O)CN(CC(=O)OCOC(C)=O)c1ccccc1OCCOc1ccccc1N(CC(=O)OCOC(C)=O)CC(=O)OCOC(C)=O [BAPTA-AM],RPS6 phosphorylation,[6],reduces
same,p70S6K phosphorylation,[6],reduces
same,calcium levels in cellular lysates,[7],reduce the calcium levels
